The record followed here is patent US11472843B2, “Malacidins and methods of use” (The Rockefeller University, priority 2017, dated 2022).

As usually defined, the MIC is the least concentration at which growth counts as inhibited.

One experiment relates to MRSA USA300. Briefly: Membrane depolarization assay (DiBAC4). The settings on record: S. aureus cells pretreated with DiBAC4; 20 μg ml^−1. The experiment is classed as cell-based, Staphylococcus aureus. As to the method:
The effects of malacidin on membrane integrity was assessed using SYTOX green. In brief, single colonies of MRSA USA300 were grown in LB media with and without 15 mM CaCl2 to an OD600 nm of 0.35. Nine hundred microlitres of cells were mixed with 100 μL of 17 μM SYTOX green dye (Thermo Fisher). The resulting mixture was incubated for 5 min at 22° C., and then distributed to a microtiter plate at 50 μl per well. An initial reading of fluorescence pre-antibiotic addition was measured at excitation and emission wavelengths of 488 nm and 523 nm, respectively. Fifty microlitres of antibiotics was added to respective wells at a final concentration of 20 μg ml^−1. Measurements were immediately collected for 10 min. To assess the effects of malacidin on membrane depolarization, similar assays were set up using the membrane potential probe, DiBAC4 (bis-(1,3-dibutylbarbituric acid)trimethine oxonol). Single colonies of MRSA USA300 were grown in LB media with and without 15 mM CaCl2 to an OD600 nm of 0.35. Nine hundred microlitres of cells were mixed with 100 μl of 20 μg ml DiBAC4dye (Thermo Fisher). The resulting mixture was incubated for 5 min at 22° C., and then distributed to a microtiter plate at 50 μl per well. An initial reading of fluorescence pre-antibiotic addition was measured at excitation and emission wavelengths of 492 nm and 515 nm, respectively. […]

Another experiment relates to S. aureus USA300. Description: MIC assay, S. aureus USA300 (MRSA). The experiment is classed as cell-based, Staphylococcus aureus. As to the method:
(§1) MIC assays were performed in duplicate in 96-well microtiter plates on the basis of the protocol recommended by the Clinical and Laboratory Standards Institute (Cockerill, 2012, Clinical and Laboratory Standards Institute). All presented data are the average of at least three independent assays. Stock solutions of malacidin or daptomycin (2 mg ml^−1 in H2O) were added to the first well in a row and serially diluted (twofold per transfer) across the microtiter plate. CaCl2 was supplemented to media at a final concentration of 15 mM and fetal bovine serum (ATCC) was added to media (1:10) to test the effect of serum. Overnight cultures of bacteria were diluted 5,000-fold, and 50 μl was used as an inoculum in each well. MIC values were determined by visual inspection after 18 h incubation (30° C., static growth). For the enhanced calcium titration experiments, standard MIC assays were performed with methicillin-resistant Staphylococcus aureus (MRSA) PFGE strain type USA300 in media supplemented with CaCl2 at: 25.0, 18.8, 14.1, 7.03, 3.52, 2.50, 1.76, 0.880, 0.440, 0.250 and 0 mM. To assess the effects of monovalent and divalent cations on malacidin activity, standard MIC assays were performed with MRSA USA300 in media supplemented with 15 mM CaCl2, MgCl2, MnCl2, ZnCl2, SrCl2, NaCl and KCl. To evaluate the effects of pulmonary surfactants on activity against a community-acquired pneumonia-causing pathogen, standard MIC assays were performed with Streptococcus pneumoniae TCH8431 in media supplemented with both 15 mM CaCl1 and Survanta (beractant) at a final concentration of 5, 1, 0.5, 0.25 or 0% (volume/volume (v/v) percent).

Experiment [1] deals with Streptococcus mutans UA159. Description: MIC assay, S. mutans. The format is cell-based. As to the method: as §1, with “To evaluate the effects of pulmonary surfactants on activity against a community-acquired pneumonia-causing pathogen, standard MIC assays were performed with Streptococcus pneumoniae TCH8431 in media supplemented with both 15 mM CaCl1 and Survanta (beractant) at a final concentration of 5, 1, 0.5, 0.25 or 0% (volume/volume (v/v) percent).” left out

In the case of malacidin A, the “Loss of membrane potential (DiBAC4)” value in the experiment on MRSA USA300 is “no significant loss of membrane potential”. In addition, the “Dependence of antibiosis (MIC) against MRSA on calcium” value with S. aureus USA300 (MRSA USA300, CaCl2 0 to 25.0 mM) was “calcium-dependent”. For the same substance, the minimum inhibitory concentration (MIC) was 0.2-0.8 μg m1^−1 with S. aureus USA300 (S. aureus USA300 + 10% serum, 15 mM CaCl2); 0.2-0.8 μg m1^−1 against S. aureus USA300 (S. aureus USA300, acquired resistance β-lactams, 15 mM CaCl2); 0.2 to 0.8 µg/mL in the experiment with S. aureus USA300 (Staphylococcus aureus + 10% Serum, USA300); 0.2 to 0.8 µg/mL in the experiment on S. aureus USA300 (Staphylococcus aureus USA300, β-lactams (Methicillin, Oxacillin, Penicillin)); 0.1-0.2 μg m1^−1 in experiment [1] (S. mutans, 15 mM CaCl2); 0.1 to 0.2 µg/mL in experiment [1] (Streptococcus mutans UA159).
